Measurements reported in US20180289655A1, “Methods and Compositions for the Intravenous Administration of Fumarates for the Treatment of Neurological Diseases” (Biogen MA Inc., priority 2015, published 2018).
Entries after “also recorded” stand apart in the source; their conditions may differ. Where a name gives a salt, the structure may show the parent alone.

Tests used:
[1] = Tail histopathology after 5 days of once daily DMF IV tail vein dosing; type: in vivo, Sprague-Dawley rats; conditions: 5 days of repeated once daily tail vein injections
blood cell populations = experiment: Complete blood count (CBC) with differential after IV dosing; type: in vivo, C57BL/6 mice
Procedure: Whole blood samples (250 μL) were collected in EDTA tubes at indicated time points after dosing, and were maintained at 4° C. until analysis for CBC with differential at Charles River Laboratories (analyzed within 24-36 hours from time of collection).
Statistical analyses on blood cell fractions were not completed due to the overall variability and low number of replicates for the samples in this pilot study.
A CBC with differential panel was performed at 10 minutes post-last dose via facial vein bleeding, and at 2 hours after the last dose, pharmacodynamic Nrf2 transcriptional responses were analyzed in tissues from the same animals. Histopathology was also performed on regions of the tail in a pilot toxicology study.

[2] = system: malonate-induced striatal lesion in rats; experiment: Immunofluorescence microscopy (NeuN, GFAP) of lesioned rat brain sections; type: in vivo, Sprague-Dawley rats; conditions: DMF p.o. 100 mg/kg and vehicle
Procedure: For tissue to be analyzed by immunofluorescence, animals were anesthetized and transcardially perfused with 4% paraformaldehyde. Brains were removed and post-fixed overnight at 4° C. Tissue was then transferred to 30% sucrose in PBS. Serial 25-μM frozen sections were cut in the coronal plane and air-dried onto gelatin-coated glass slides. All tissue sections were washed in PBS and blocked with 5% normal goat serum in solution with 0.1% Triton X-100/PBS for 45 minutes at room temperature. Sections were then incubated with monoclonal anti-NeuN (1:500; Millipore, Temecula, Calif., USA) for neurons and polyclonal anti-glial fibrillary acidic protein (GFAP) (1:600) for astrocytes in blocking solution overnight at 4° C. Secondary antibody incubations were for 1 hour at room temperature. All immunofluorescence images were acquired with Openlab and Spectrum software.

[3] = system: malonate-induced striatal lesion in rats; experiment: Malonate-induced striatal lesion volume (cytochrome oxidase histochemistry), oral DMF; type: in vivo, Sprague-Dawley rats
Procedure: Two separate experiments were conducted and are reported here.
Rats were anesthetized under Bupivacaine (2 mg/kg), Brevital (50 mg/kg, i.p.) and isoflurane anesthesia, placed in a stereotaxic frame and prepared for intrastriatal injection. A single injection of malonate was injected at a single site in the left striatum corresponding to stereotaxic coordinates at AP: […] from bregma; Lateral: 2.8 mm from midline; DV: −5.5 mm from surface of the skull at bregma. Malonate (in saline) was injected at a dose of 2.0 μmols in 2.0 μl over 4 minutes using a syringe pump. The injection needle was left in place for an additional 1.0 min following the infusion and was withdrawn slowly to minimize reflux of the infusate up the needle tract. Rats were kept warm on a heating pad until waking from anesthesia (Green and Greenamyre, 1995).
Three (Experiment 1) or four (Experiment 2) days after the malonate injection and 30 min after the last dose, all animals were sacrificed by CO2, and their brains were quickly removed and stored in 20% sucrose in PBS for at least 1 hour, then transfer them to 30% sucrose in PBS overnight. On next day, all brains were embedded in OCT and stored in −80° C. The first experiment included three treatment groups: vehicle, 30 mg/kg and 100 mg/kg, and the second experiment included four treatment groups: vehicle, 50 mg/kg, 75 mg/kg and 100 mg/kg.
Incubation medium consisted of 200 mg cytochrome C and 200 mg of 3, 3′-Diaminobenzidine tetrahydrochloride (DAB) in 500 ml of 0.1 M phosphate buffer, pH 7.4. Slides were incubated for 90 minutes at 37° C. and wash twice with PBS (2-5 min.), then removed to 4% neutral, buffered, paraformaldehyde for 20 minutes. Sections were rinsed twice with PBS (2-5 min.), then twice with distilled water (2-5 min.), dehydrated, cleared in xylene, and coverslipped.
The lesion area on each section was quantified using Open-Lab Image Analysis System. Sections were taken throughout the entire striatum and a total of twenty 25 μm sections were analyzed for each rat. Area measurements were summed and multiplied by intersectional distance (200 μm) to determine the lesion volume for each subject.
Data for lesion volume was analyzed by one way analysis of variance (ANOVA) followed by a Tukey's test to assess differences between the treatment and vehicle groups.

[4] = DMF IV formulation development: solubility in solvents and excipient vehicles; type: physicochemical
Procedure: 2. […] For example, 2% DMSO (0.1 ml/kg/5 ml/kg*100%=2.0%), 10% PEG400 (1 ml/kg/5 ml/kg*50%=10%) and 20% Captisol (sulfobutyl ether cyclodextrin) (5 ml/kg/5 ml/kg*20%=20%) could be used for rodent IV formulation assumed the dosage of 5 ml/kg. 3. […] The studies were performed by making the PEG400 stock solution and diluting the solution with different vehicles (Table 16). […] 4.

[5] = Solubility of DMF in HPbCD, Captisol, saline and D5W at ambient temperature; type: physicochemical; conditions: thermodynamic from solid
Procedure: Solubility of DMF in these media was determined at ambient temperature by preparing a saturated solution.

[6] = Study 3, DMF IV 30 mg/kg once daily x5
[7] = Study 3, DMF IV 30 mg/kg once daily x5, vs vehicle

**Q.** For `COC(=O)/C=C/C(=O)OC` [DMF, dimethyl fumarate], which “Histopathology findings in the tail” value [1] is on record?
**A.** The value was “no treatment-related histopathology findings in the tail”.

**Q.** What about the “Reduction in white blood cell counts (neutrophils, lymphocytes, monocytes, eosinophils, basophils)” value (blood cell populations; Study 2, single IV dose DMF 30 mg/kg or MMF 27.08 mg/kg, 2-hour time point) of the same compound?
**A.** Its value is “did not specifically coincide with DMF or MMF treatment”.

**Q.** And the “Effect on red blood cells, hemoglobin, hematocrit, mean corpuscular volume, platelets” value (blood cell populations; Study 2, single IV dose DMF 30 mg/kg or MMF 27.08 mg/kg, 10 minutes, 2 and 6 hours)?
**A.** Its value is “no effect on red blood cells, hemoglobin, hematocrit, mean corpuscular volume, or platelets”.

**Q.** What about the “Effect on red blood cells, hemoglobin, hematocrit, mean corpuscular volume, platelets” value (blood cell populations; [6]) of the same compound?
**A.** The value was “no effects on red blood cells, hemoglobin, hematocrit, mean corpuscular volume, or platelets”.

**Q.** And the White blood cells (blood cell populations; [6])?
**A.** The White blood cells was “general reduction in white blood cells”.

**Q.** What about the Decrease in lymphocytes (blood cell populations; [7]) of the same compound?
**A.** Its Decrease in lymphocytes is 38%.

**Q.** What about the Decrease in monocytes (blood cell populations; [7]) of the same compound?
**A.** The Decrease in monocytes was 60%.

**Q.** And the “Astrocytes (GFAP) near the lesion border” value [2]?
**A.** Its value is “Astrocytes appear to survive in both vehicle and DMF treated animals”.

**Q.** What about the “Reduction of malonate induced lesion volume” value ([3]; Experiment 1, DMF 100 mg/kg oral daily, n=7 per group) of the same compound?
**A.** Its value is 55%.

**Q.** What about the “Reduction of malonate-induced lesion volume” value ([3]; Experiment 2, DMF 75 mg/kg oral daily) of the same compound?
**A.** The value was 44%.

**Q.** And the “Reduction of malonate-induced lesion volume” value ([3]; Experiment 2, DMF 100 mg/kg oral daily)?
**A.** The value was 61%.

**Q.** What about the “Reduction of malonate-induced lesion volume” value ([3]; both experiments, DMF 100 mg/kg oral daily) of the same compound?
**A.** Its value is “at least 55%”.

**Q.** And the Solution or precipitated ([4]; 5 mg/ml DMF in 15% HPbCD, heating then cooling to room temperature, final pH 3.51)?
**A.** The Solution or precipitated was “solution”.

**Q.** And the Solution or precipitated ([4]; 5 mg/ml DMF in 20% Captisol, heating then cooling to room temperature, final pH 4.71)?
**A.** The Solution or precipitated was “clear solution could be achieved”.

**Q.** What about the “Suitable for 5 mg/ml dosage?” value ([4]; 10% PEG400 + 0.5% HPMC) of the same compound?
**A.** The value was “No”.

**Q.** What about the “Suitable for 5 mg/ml dosage?” value ([4]; 10% PEG400 + 0.5% HPMC + 0.2% SDS) of the same compound?
**A.** Its value is “No”.

**Q.** What about the Solution or precipitated ([4]; 10% PEG400 + 0.5% HPMC + 0.2% SDS, final concentration 2.8 mg/ml) of the same compound?
**A.** Its Solution or precipitated is “precipitated”.

**Q.** What about the Solution or precipitated ([4]; 10% PEG400 + 0.5% HPMC, final concentration 2.8 mg/ml) of the same compound?
**A.** The Solution or precipitated was “precipitated”.

**Q.** And the “Suitable for 5 mg/ml dosage?” value ([4]; 10% PEG400 + 1.5% Poloxamer 188)?
**A.** Its value is “No”.

**Q.** What about the Solution or precipitated ([4]; 10% PEG400 + 1.5% Poloxamer 188, final concentration 2.8 mg/ml) of the same compound?
**A.** Its Solution or precipitated is “precipitated”.

**Q.** What about the “Suitable for 5 mg/ml dosage?” value ([4]; 10% PEG400 + 1.5% Poloxamer 237) of the same compound?
**A.** The value was “No”.

**Q.** What about the Solution or precipitated ([4]; 10% PEG400 + 1.5% Poloxamer 237, final concentration 2.8 mg/ml) of the same compound?
**A.** The Solution or precipitated was “precipitated”.

**Q.** And the “Suitable for 5 mg/ml dosage?” value ([4]; 10% PEG400 + 2.0% Tween 80)?
**A.** The value was “No”.

**Q.** And the Solution or precipitated ([4]; 10% PEG400 + 2.0% Tween 80, final concentration 2.8 mg/ml)?
**A.** The Solution or precipitated was “precipitated”.

**Q.** And the “Suitable for 5 mg/ml dosage?” value ([4]; 10% PEG400 + 15% HPbCD)?
**A.** The value was “Might be”.

**Q.** And the Solution or precipitated ([4]; 10% PEG400 + 15% HPbCD, final concentration 2.8 mg/ml)?
**A.** The Solution or precipitated was “generated clear solutions at 2.8 mg/ml; also recorded: Clear solution”.

**Q.** What about the “Suitable for 5 mg/ml dosage?” value ([4]; 10% PEG400 + 20% Captisol) of the same compound?
**A.** Its value is “Might be”.

**Q.** What about the Solution or precipitated ([4]; 10% PEG400 + 20% Captisol, final concentration 2.8 mg/ml) of the same compound?
**A.** The Solution or precipitated was “generated clear solutions at 2.8 mg/ml; also recorded: Clear solution”.

**Q.** And the “Suitable for 5 mg/ml dosage?” value ([4]; 10% PEG400 + D5W)?
**A.** Its value is “No”.

**Q.** And the “Suitable for 5 mg/ml dosage?” value ([4]; 10% PEG400 + D5W phosphate buffer (pH 6.0))?
**A.** The value was “No”.

**Q.** And the Solution or precipitated ([4]; 10% PEG400 + D5W phosphate buffer (pH 6.0), final concentration 2.8 mg/ml)?
**A.** The Solution or precipitated was “precipitated”.

**Q.** What about the Solution or precipitated ([4]; 10% PEG400 + D5W, final concentration 2.8 mg/ml) of the same compound?
**A.** The Solution or precipitated was “precipitated”.

**Q.** And the “Suitable for 5 mg/ml dosage?” value ([4]; 10% PEG400 + H2O)?
**A.** The value was “No”.

**Q.** And the Solution or precipitated ([4]; 10% PEG400 + H2O, final concentration 2.8 mg/ml)?
**A.** The Solution or precipitated was “precipitated”.

**Q.** And the “Suitable for 5 mg/ml dosage?” value ([4]; 10% PEG400 + Saline (pH 7))?
**A.** The value was “No”.

**Q.** What about the Solution or precipitated ([4]; 10% PEG400 + Saline (pH 7), final concentration 2.8 mg/ml) of the same compound?
**A.** The Solution or precipitated was “precipitated”.

**Q.** What about the “Suitable for 5 mg/ml dosage?” value ([4]; 20% Captisol, final pH 4.71) of the same compound?
**A.** Its value is “Might be, 5 mg/ml solution could be”.

**Q.** And the solubility ([4]; DMSO (pure solvent), organic solvent or mixture)?
**A.** The solubility was 23 to 29 mg/mL.

**Q.** And the solubility ([4]; PEG400, organic solvent or mixture)?
**A.** Its solubility is 38 to 46 mg/mL.

**Q.** And the solubility ([4]; ethanol, organic solvent or mixture)?
**A.** Its solubility is less than 20 mg/mL.

**Q.** And the solubility ([4]; organic solvent or mixture, propylene Glycol (PG))?
**A.** The solubility was less than 20 mg/mL.

**Q.** What about the solubility at 24 h ([5]; aqueous with cosolvent or surfactant or cyclodextrin, 40% Captisol, pH 4.42) of the same compound?
**A.** The solubility at 24 h was 7.9 mg/mL.

**Q.** And the solubility at 24 h ([5]; pH 3.9, aqueous with cosolvent or surfactant or cyclodextrin, 40% HPbCD, pH 3.90)?
**A.** Its solubility at 24 h is 15.1 mg/mL.

**Q.** And the solubility at 24 h ([5]; pH 4.3, aqueous with cosolvent or surfactant or cyclodextrin, 5% HPbCD, pH 4.30)?
**A.** The solubility at 24 h was 4.03 mg/mL.

**Q.** And the solubility at 24 h ([5]; pH 4.8, aqueous with cosolvent or surfactant or cyclodextrin, 5% Captisol, pH 4.80)?
**A.** The solubility at 24 h was 3.18 mg/mL.

**Q.** What about the solubility at 24 h ([5]; saline or isotonic, D5W (5% Dextrose in water), pH 6.32) of the same compound?
**A.** Its solubility at 24 h is 2.39 mg/mL.

**Q.** What about the solubility at 24 h ([5]; saline or isotonic, Saline (0.9% NaCl), pH 6.67) of the same compound?
**A.** Its solubility at 24 h is 2.08 mg/mL.
